# Measurements: ChEMBL document CHEMBL4602703, “Lead Optimization of a Pyrrole-Based Dihydroorotate Dehydrogenase Inhibitor Series for the Treatment of Malaria” (J Med Chem, 2020)
# What was measured:
# [1] = Inhibition of yeast DHODH transformed in Plasmodium falciparum D10 in presence of 10 uM proguanil; parameters: species or system Saccharomyces cerevisiae
# [2] = Protein binding in human liver microsomes by LC-MS analysis based ultracentrifugation assay; format: ADME, Microsome; details: read-out: PB (converted)
# [3] = target: T1, CYP3A4/5 (Homo sapiens, UniProt P08684+P20815); assay: in vitro; details: liver microsomes, probe midazolam
# [4] = Oral bioavailability in Sprague-Dawley rat at 33 mg/kg administered via gavage measured up to 24 hrs by LC-MS analysis; format: ADME, organism-based; details: in vivo
# [5] = target: T1, CYP3A4/5; assay: in vitro; details: liver microsomes, probe midazolam; remark: listed apart in the source
# [6] = Oral bioavailability in Sprague-Dawley rat at 3 mg/kg administered via gavage measured up to 24 hrs by LC-MS analysis; format: ADME, organism-based; details: in vivo
# [7] = target: T2, Cytochrome P450 2C19 (Homo sapiens, UniProt P33261); assay: Inhibition of CYP2C19 in human liver microsomes using (S)-mephenytoin as substrate measured for 10 to 30 mins in presence of NADPH regenerating system by UPLC-MS analysis; format: ADME
# [8] = AUC (0 to infinity) in Sprague-Dawley rat at 3 mg/kg, po administered via gavage measured up to 24 hrs by LC-MS analysis; format: ADME, organism-based; parameters: dose 3 mg/kg, route oral, time infinity; details: in vivo
# [9] = AUC (0 to infinity) in Swiss mouse at […], iv administered as bolus dose measured up to 24 hrs by UPLC-MS analysis; format: ADME, organism-based; parameters: dose 2.8 mg/kg, route intravenous, time infinity; details: in vivo
# [10] = Cmax in Sprague-Dawley rat at 33 mg/kg, po administered via gavage measured up to 24 hrs by LC-MS analysis; format: ADME, organism-based; parameters: dose 33 mg/kg, route oral; details: in vivo
# [11] = target: T3, Cytochrome P450 1A2 (Homo sapiens, UniProt P05177); assay: Inhibition of CYP1A2 in human liver microsomes using phenacetin as substrate measured for 10 to 30 mins in presence of NADPH regenerating system by UPLC-MS analysis; format: ADME
# T3 sequence (P05177 whole entry): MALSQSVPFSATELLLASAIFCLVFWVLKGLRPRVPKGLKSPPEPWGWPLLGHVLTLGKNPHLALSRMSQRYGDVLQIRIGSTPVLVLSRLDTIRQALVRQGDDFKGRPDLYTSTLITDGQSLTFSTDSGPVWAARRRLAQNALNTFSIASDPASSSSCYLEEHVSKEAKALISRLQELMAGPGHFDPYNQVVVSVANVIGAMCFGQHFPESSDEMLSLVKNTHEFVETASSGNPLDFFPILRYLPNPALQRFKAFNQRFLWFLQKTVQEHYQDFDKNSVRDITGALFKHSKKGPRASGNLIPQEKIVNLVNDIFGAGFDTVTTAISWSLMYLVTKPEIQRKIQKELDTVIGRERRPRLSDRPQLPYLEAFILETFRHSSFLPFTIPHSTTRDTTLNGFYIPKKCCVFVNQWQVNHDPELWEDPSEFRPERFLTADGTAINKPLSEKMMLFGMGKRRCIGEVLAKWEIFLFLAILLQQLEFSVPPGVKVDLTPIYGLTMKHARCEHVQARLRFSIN
# [12] = Protein binding in DMEM medium containing 10% fetal calf serum by LC-MS analysis based ultracentrifugation assay; format: ADME, cell-free, Bos taurus; details: cattle, DMEM medium containing 10% fetal calf serum; read-out: PB (converted)
# [13] = Protein binding in human plasma by LC-MS analysis based ultracentrifugation assay; format: ADME, cell-free; details: read-out: PPB (converted)
# [14] = system: HepG2; assay: Cytotoxicity against human HepG2 cells assessed as reduction in cell viability; format: cell-based
# [15] = system: Plasmodium falciparum; assay: animal or person; details: 3D70087/N9, in Mus musculus, po, 96 h
# [16] = system: L1210; assay: Cytotoxicity against mouse L1210 cells assessed as reduction in cell viability; format: cell-based
# [17] = target: T4, Cytochrome P450 2C9 (Homo sapiens, UniProt P11712); assay: Inhibition of CYP2C9 in human liver microsomes using tolbutamide as substrate measured for 10 to 30 mins in presence of NADPH regenerating system by UPLC-MS analysis; format: ADME
# [18] = AUC (0 to infinity) in Swiss mouse at 18.3 mg/kg, po via gavage measured up to 24 hrs by UPLC-MS analysis; format: ADME, organism-based; parameters: dose 18.3 mg/kg, time infinity, route oral; details: in vivo
# [19] = target: T2, Cytochrome P450 2C19; assay: Time-dependent inhibition of CYP2C19 in human liver microsomes using (S)-mephenytoin as substrate in absence of NADPH regenerating system by UPLC-MS analysis; format: ADME
# [20] = Cmax in Swiss mouse blood at 18.3 mg/kg, po via gavage measured up to 24 hrs by UPLC-MS analysis; format: ADME, organism-based; parameters: dose 18.3 mg/kg, route oral; details: in vivo
# [21] = target: T1, CYP3A4/5; assay: in vitro; details: liver microsomes, probe midazolam; remark: listed apart in the source
# [22] = target: T2, Cytochrome P450 2C19; assay: Time-dependent inhibition of CYP2C19 in human liver microsomes using (S)-mephenytoin as substrate in presence of NADPH regenerating system by UPLC-MS analysis; format: ADME
# [23] = Volume of drug distribution at steady state in Swiss mouse at […], iv administered as bolus dose measured up to 24 hrs by UPLC-MS analysis; format: ADME, organism-based; details: in vivo
# [24] = target: Voltage-gated inwardly rectifying potassium channel KCNH2 (Homo sapiens, UniProt Q12809); assay: Inhibition of human ERG by IonWorks patch clamp electrophysiology assay
# [25] = target: T4, Cytochrome P450 2C9; assay: Time-dependent inhibition of CYP2C9 in human liver microsomes using tolbutamide as substrate in absence of NADPH regenerating system by UPLC-MS analysis; format: ADME
# [26] = Cmax in Sprague-Dawley rat at 3 mg/kg, po administered via gavage measured up to 24 hrs by LC-MS analysis; format: ADME, organism-based; parameters: dose 3 mg/kg, route oral; details: in vivo
# [27] = target: Potassium voltage-gated channel subfamily A member 5 (Homo sapiens, UniProt P22460); assay: Inhibition of human Kv1.5 by IonWorks patch clamp electrophysiology assay
# [28] = target: Albumin (Homo sapiens, UniProt P02768); assay: Binding affinity to albumin (unknown origin) by chromatographic method; format: ADME; details: albumin, read-out: PB (converted)
# [29] = Apparent half life in Sprague-Dawley rat at […], iv administered as infusion for 10 mins and measured up to 24 hrs by LC-MS analysis; format: ADME, organism-based; details: in vivo, read-out: t1/2(app) (converted)
# [30] = Volume of distribution at steady state in Sprague-Dawley rat at […], iv administered as infusion for 10 mins and measured up to 24 hrs by LC-MS analysis; format: ADME, organism-based; details: in vivo, read-out: Vdss
# [31] = Cmax in Swiss mouse at 50 mg/kg, po via gavage measured up to 24 hrs by UPLC-MS analysis; format: ADME, organism-based; parameters: dose 50 mg/kg, route oral; details: in vivo
# [32] = Cmax in Swiss mouse at 18.3 mg/kg, po via gavage measured up to 24 hrs by UPLC-MS analysis; format: ADME, organism-based; parameters: dose 18.3 mg/kg, route oral; details: in vivo
# [33] = system: Plasmodium falciparum; format: functional, organism-based; details: R10C1B, 72 h
# [34] = target: T1, CYP3A4/5; assay: in vitro; details: liver microsomes, probe testosterone
# [35] = Apparent half life in Swiss mouse at 50 mg/kg, po via gavage measured up to 24 hrs by UPLC-MS analysis; format: ADME, organism-based; details: in vivo
# T2 sequence (P33261 whole entry): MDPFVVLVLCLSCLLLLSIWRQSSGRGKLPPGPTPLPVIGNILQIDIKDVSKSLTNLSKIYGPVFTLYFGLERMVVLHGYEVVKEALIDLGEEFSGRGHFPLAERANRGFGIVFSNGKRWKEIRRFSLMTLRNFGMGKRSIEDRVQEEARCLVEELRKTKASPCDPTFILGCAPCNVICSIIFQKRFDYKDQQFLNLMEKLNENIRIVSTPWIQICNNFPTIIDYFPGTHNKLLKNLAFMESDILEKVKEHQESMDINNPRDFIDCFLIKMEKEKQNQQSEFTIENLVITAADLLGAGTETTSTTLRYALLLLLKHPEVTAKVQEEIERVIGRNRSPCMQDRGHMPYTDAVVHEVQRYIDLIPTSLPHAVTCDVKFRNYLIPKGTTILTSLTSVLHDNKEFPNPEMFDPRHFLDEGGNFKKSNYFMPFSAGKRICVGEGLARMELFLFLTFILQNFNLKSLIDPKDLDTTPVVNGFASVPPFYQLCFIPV
# T4 sequence (P11712 whole entry): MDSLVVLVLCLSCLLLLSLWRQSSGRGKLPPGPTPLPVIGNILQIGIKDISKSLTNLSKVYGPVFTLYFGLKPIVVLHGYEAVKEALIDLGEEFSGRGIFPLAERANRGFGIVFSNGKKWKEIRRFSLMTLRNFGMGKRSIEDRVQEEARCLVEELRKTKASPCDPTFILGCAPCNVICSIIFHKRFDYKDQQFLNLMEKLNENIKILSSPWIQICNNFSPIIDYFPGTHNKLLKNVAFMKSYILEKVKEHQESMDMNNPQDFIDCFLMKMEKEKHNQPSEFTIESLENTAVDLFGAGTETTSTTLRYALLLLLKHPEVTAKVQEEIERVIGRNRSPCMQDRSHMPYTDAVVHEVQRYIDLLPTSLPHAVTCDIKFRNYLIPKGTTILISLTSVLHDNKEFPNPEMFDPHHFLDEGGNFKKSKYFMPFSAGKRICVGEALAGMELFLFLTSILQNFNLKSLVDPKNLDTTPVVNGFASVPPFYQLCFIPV
# Sequence of Potassium voltage-gated channel subfamily A member 5 (P22460 whole entry): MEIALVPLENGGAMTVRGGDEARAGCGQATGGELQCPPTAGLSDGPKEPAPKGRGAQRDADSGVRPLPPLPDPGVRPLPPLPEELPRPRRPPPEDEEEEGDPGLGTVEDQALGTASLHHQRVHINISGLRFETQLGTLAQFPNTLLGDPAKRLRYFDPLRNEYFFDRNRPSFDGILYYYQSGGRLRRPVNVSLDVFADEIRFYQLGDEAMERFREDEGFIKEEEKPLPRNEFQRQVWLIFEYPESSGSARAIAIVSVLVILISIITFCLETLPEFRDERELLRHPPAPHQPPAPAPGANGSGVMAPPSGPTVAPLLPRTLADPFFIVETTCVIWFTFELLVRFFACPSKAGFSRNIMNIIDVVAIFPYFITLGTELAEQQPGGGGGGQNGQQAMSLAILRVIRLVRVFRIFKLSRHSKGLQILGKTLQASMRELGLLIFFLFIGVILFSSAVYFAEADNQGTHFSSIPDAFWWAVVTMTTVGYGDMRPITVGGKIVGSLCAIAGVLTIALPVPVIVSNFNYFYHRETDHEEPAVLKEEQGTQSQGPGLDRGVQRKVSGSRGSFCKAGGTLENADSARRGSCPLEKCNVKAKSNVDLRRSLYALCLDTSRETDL
# Sequence of Voltage-gated inwardly rectifying potassium channel KCNH2 (Q12809 whole entry): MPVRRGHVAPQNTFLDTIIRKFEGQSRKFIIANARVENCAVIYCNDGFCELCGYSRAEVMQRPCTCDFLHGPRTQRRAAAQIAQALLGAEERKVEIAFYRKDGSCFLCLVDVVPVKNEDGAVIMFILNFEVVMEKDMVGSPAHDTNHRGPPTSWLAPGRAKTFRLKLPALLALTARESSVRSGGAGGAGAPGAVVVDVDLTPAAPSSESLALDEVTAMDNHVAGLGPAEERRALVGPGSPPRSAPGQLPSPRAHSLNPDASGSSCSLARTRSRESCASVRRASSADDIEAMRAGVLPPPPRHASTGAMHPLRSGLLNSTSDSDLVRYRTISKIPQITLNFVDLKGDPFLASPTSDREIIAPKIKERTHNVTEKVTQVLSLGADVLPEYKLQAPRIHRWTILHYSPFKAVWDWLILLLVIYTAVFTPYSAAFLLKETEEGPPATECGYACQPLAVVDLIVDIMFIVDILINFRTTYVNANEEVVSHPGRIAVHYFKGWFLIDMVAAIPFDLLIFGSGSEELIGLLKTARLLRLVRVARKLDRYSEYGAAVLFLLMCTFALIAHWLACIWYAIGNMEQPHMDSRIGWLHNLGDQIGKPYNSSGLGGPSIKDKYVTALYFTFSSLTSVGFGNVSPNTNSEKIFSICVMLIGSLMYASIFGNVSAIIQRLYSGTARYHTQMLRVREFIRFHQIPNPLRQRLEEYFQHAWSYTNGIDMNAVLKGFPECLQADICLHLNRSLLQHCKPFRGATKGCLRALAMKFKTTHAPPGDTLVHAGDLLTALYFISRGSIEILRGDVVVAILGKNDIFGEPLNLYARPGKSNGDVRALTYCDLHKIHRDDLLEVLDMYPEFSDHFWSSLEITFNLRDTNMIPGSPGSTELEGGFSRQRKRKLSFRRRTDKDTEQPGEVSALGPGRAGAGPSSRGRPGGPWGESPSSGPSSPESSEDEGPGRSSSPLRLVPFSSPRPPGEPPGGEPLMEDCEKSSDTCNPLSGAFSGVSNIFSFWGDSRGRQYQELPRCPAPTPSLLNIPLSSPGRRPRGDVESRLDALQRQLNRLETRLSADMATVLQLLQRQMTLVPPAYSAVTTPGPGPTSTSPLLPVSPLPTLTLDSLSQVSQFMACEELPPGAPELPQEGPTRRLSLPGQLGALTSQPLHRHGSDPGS
# Sequence of Albumin (P02768 whole entry, the tested form may be a part): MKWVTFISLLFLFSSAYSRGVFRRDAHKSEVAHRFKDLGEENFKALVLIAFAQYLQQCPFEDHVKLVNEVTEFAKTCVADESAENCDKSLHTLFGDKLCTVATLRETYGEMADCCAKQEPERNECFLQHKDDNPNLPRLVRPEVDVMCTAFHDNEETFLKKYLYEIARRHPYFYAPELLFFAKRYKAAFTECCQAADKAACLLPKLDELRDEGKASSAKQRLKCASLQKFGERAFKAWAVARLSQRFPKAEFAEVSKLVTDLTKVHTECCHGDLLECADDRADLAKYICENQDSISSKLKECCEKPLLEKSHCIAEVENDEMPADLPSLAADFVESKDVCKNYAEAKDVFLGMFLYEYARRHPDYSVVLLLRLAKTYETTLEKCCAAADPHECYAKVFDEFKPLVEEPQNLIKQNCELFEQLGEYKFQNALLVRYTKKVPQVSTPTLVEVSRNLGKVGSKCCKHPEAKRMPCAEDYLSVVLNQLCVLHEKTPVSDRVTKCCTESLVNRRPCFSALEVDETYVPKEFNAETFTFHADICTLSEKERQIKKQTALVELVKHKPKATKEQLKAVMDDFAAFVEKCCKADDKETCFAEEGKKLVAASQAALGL
structure (smiles),measurement,setting,value
Cc1c(Cc2ccc(C(F)(F)F)nc2)c[nH]c1C(=O)NC1CC1,EC50,[1],> 20 µM
same,fraction unbound,[2],0.701
same,IC50,[3],> 20 µM
same,F,[4],> 100%
same,IC50,[5],5.5 µM
same,F,[6],91%
same,IC50,[7],> 20 µM
same,AUC,[8],5.1 µM·h
same,AUC,[9],5.6 µM·h
same,Cmax,[10],27 µM
same,IC50,[11],> 20 µM
same,fraction unbound,[12],0.685
same,fraction unbound,[13],0.1
same,CC50,[14],> 50 µM
same,ED90,[15],50 mg/kg/day
same,CC50,[16],> 50 µM
same,IC50,[17],> 20 µM
same,AUC,[18],55.6 µM·h
same,TDI,[19],Not Active
same,Cmax,[20],6.7 µM
same,IC50,[21],> 20 µM
same,TDI,[22],Not Active
same,Vdss,[23],1.2 L/kg
same,EC50,[24],> 33 µM
same,TDI,[25],Not Active
same,Cmax,[26],1.7 µM
same,EC50,[27],> 11 µM
same,fraction unbound,[28],0.238
same,half-life,[29],14.6 h
same,Vd,[30],4.7 L/kg
same,Cmax,[31],42.3 µM
same,Cmax,[32],8.4 µM
same,EC50,[33],0.024 µM
same,IC50,[34],5.5 µM
same,t1/2(app),[35],3.6 h
